Reference: paper PMC7070709, “Design, Synthesis, and In Vitro Evaluation of Hydroxybenzimidazole-Donepezil Analogues as Multitarget-Directed Ligands for the Treatment of Alzheimer’s Disease” (Molecules, 2020)
Entries after “also recorded” stand apart in the source; their conditions may differ. Where two headings read alike, the source gives them in different places.

What was measured:
Aβ1–42 with Cu(II) [1] = target: T1, Aβ1–42 with Cu(II) (Homo sapiens, UniProt P05067); set-up: method as in PMID 32171933; settings: copper 40 µM, cited from earlier work
T1 construct: Aβ1–42 (40 μM) was incubated at 37 °C, for 24 h with or without Cu(II) (40 μM)
T1 sequence (P05067 672-713): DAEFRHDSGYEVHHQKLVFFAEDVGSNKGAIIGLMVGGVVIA

[2] = pH 7.4, CL/CM = 10, CM = 10^−6 M; cited from earlier work
[3] = Cu(II) chelation by potentiometry; type: physicochemical; settings: pH 7.4; read-out: conditional dissociation constant (K´d) for the copper complex
Text: The metal chelating ability of hybrids 7 and 12, due to the BIM bidentate unity with (N,O) coordination mode, was studied by potentiometry. Figure 3A,B show a change in the deprotonation profile of the ligand titration curves due to the presence of the metal ions. In fact, the curves for the Cu(II)/L systems lie well below that of the ligand, while for the Zn(II)/L systems stay under for a > −1 (compound 7) or a > 0 (compound 12), thus supporting the formation of 1:1 and 1:2 M/L ratio complexes with the deprotonated and mono-protonated forms of the ligand and with relative metal dependent stability order (Cu > Zn). Table 1 contains the equilibrium models obtained from the fitting analysis of the potentiometric curves by program Hyperquad. In these equilibrium models, which the coordination core of the compounds integrates the bidentate (N,O) BIM moiety, MHL and MH2L2 correspond to species with the ligand containing one protonated nitrogen atom at the piperazine moiety, ML and ML2 correspond to complexes involving the completely deprotonated form of the ligand while MH-1L2 are mixed ligand-hydroxo metal complexes.
Solutions: the aqueous copper (CuCl2, 0.015 M) and zinc (ZnCl2, 0.0156 M) stock solutions for potentiometric equilibrium studies were prepared from 1000 ppm standards (Titrisol) and their metal content was evaluated by atomic absorption. The titrant solution (0.1 M KOH) was obtained from a carbonate-free commercial concentrate (Titrisol) and standardized by potentiometric titration with potassium hydrogen phthalate. The titrant solution was discarded whenever the percentage of carbonate (Gran’s method) was about 0.5% of the total amount of base.
Measurements: compounds 7 and 12 were titrated in 50% (w/w) DMSO/H2O medium, at T = 25.0 ± 0.1 °C and ionic strength (I) 0.1 M KCl, using 0.1 M KOH as titrant. Both glass and Ag/AgCl reference electrodes were previously conditioned in DMSO/H2O mixtures with increasing amounts of DMSO and the response of the glass electrode was controlled by strong acid–strong base (HCl/KOH) calibrations with the determination of the Nernst parameters by Gran’s method. […] All titrations were performed in duplicate and under the stated experimental conditions the pKw value (13.6) was determined and subsequently used in the computations. The stepwise protonation constant of the ligand, Ki = [HiL]/([Hi–1L][H]), and the overall metal–complex stability constants, βMmHhLl = [MmHhLl]/([M]^m[H]^h[L]^l), were calculated by fitting the potentiometric titration data with Hyperquad 2008 [26]. The metal hydrolysis constants were determined under the defined experimental conditions (I = 0.1 M KCl, 50% w/w DMSO/H2O, T = 25.0 ± 0.1 °C) and the following values of stability constants were included in the fitting of experimental data towards the equilibrium models related to the Cu^2+/L and Zn^2+/L systems: log βCu2H−2 = −9.99; log βZnH−2 = −14.79, log βZnH−3 = −23.48. Species distribution curves were plotted with the Hyss program.

Aβ1–42 [4] = target: T2, Aβ1–42 (Homo sapiens, UniProt P05067); set-up: method as in PMID 32171933; settings: cited from earlier work
T2 construct: Aβ1–42 (40 μM) was incubated at 37 °C, for 24 h with or without Cu(II) (40 μM)
T2 sequence (P05067 672-713): as above

[5] = target: T3, AChE (type VI-S, from electric eel) (Electrophorus electricus, UniProt O42275); settings: read-out: TcAChE Inhibition IC50; cited from earlier work
T3 construct: purchased type VI-S
T3 sequence (O42275 24-633): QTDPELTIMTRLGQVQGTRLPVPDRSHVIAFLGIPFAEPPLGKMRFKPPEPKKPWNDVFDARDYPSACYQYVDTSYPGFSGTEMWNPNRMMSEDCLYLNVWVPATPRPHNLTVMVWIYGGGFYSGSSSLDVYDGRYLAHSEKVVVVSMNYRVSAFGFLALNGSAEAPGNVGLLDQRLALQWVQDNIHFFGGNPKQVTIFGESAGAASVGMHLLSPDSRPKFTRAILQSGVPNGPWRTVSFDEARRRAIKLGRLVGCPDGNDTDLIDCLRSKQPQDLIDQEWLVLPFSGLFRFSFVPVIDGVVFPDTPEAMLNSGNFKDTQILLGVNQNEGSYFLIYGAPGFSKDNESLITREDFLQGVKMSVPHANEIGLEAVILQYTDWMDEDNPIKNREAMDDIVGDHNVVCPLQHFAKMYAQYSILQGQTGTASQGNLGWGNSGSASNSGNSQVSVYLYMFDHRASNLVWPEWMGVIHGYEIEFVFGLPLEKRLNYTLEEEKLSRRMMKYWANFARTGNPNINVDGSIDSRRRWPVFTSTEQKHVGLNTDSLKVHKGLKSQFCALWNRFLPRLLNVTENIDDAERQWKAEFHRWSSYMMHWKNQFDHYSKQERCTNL

[6] = 50% w/w DMSO/water, I = 0.1 M KCl, 25.0 °C; cited from earlier work
Aβ1–42 with Cu(II) [7] = target: T1, Aβ1–42 with Cu(II); experiment: Inhibition of Cu-induced Aβ1–42 aggregation (thioflavin T fluorescence); type: biochemical; settings: inhibitor 40 µM, copper 40 µM, Aβ1–42 40 μM, 24 h, 37 °C
Description: (§1) The anti-amyloidogenic capacity of the compounds was also evaluated in vitro, in the absence and presence of Cu(II), based on the measurement of the fluorescence emission of Thioflavin T (ThT), a stain known by its Aβ fibril binding capacity. This binding interaction can be analyzed by fluorimetry, since the presence of ThT-fibrils increases the absorbance and the emission of the ThT dye, and it also induces red shifts on the absorbance (from 385 to 446 nm) and emission peaks (from 445 to 485 nm). All the measurements were performed after incubation (24 h, 37 °C) of the self-mediated and Cu^2+-induced Aβ aggregates in the presence/absence of the compounds under evaluation.
(§2) Herein, due to solubility problems of some compounds in the phosphate buffer (0.215 M, pH 8.0) of the working medium, the assays were carried out in the presence of 40 μM concentration of inhibitor and 20 μM in the case of compound 4, instead of 80 μM as previously reported. […] The activity dependence on ligand structural features may be mainly explained by the different ability for intercalation into the fibrils, as already assumed for other inhibitors. […] The data obtained for compounds 6 and 7 indicate that the presence of R1 = F, -NO2 substituents in the BIM have some small positive effect on the inhibition of Aβ aggregation.
(§3) The Aβ peptide was treated with 1,1,1,3,3,3-hexafluoropropan-2-ol (HFIP) and dissolved in a CH3CN/Na2CO3 (300 μM)/NaOH (250 μM) (48.3:48.3:4.3, v/v/v) mixture in order to have a stable stock solution, avoiding self-aggregation of Aβ1–42. Then, the prepared 500 μM solution was diluted at 40 μM in phosphate buffer (0.215 M, pH 8.0).
(§4) The solutions of the tested compounds were prepared in MeOH (1 mg/mL), being further diluted in phosphate buffer to a concentration of 480 μM. For copper-induced aggregation studies, a solution of CuCl2 240 μM was prepared from a stock standard solution (0.015 M). To perform the assays for the Aβ1–42 aggregation inhibition, a reported method, based on the fluorescence emission of thioflavin T (ThT), was followed. Aβ1–42 (40 μM) was incubated at 37 °C, for 24 h with or without Cu(II) (40 μM) in a phosphate buffer in presence or absence of the single ligand (40 μM and 20 μM for compound 4). Then, the samples were added to a 96-well plate with […] of 5 μM ThT in 50 mM glycine-NaOH (pH 8.5) buffer. Blank samples were prepared without the peptide for each concentration. The ThT fluorescence was measured at 446 nm (excitation) and 485 nm (emission). The inhibition percentage of aggregation was calculated by Equation (2), in which IFi and IF0 corresponded to the fluorescence intensities, in the presence and in the absence of the tested compound, subtracted of the fluorescence intensities due to the respective blanks.
(§5) The reported values were obtained as the mean ± SEM of duplicate of three different experiments.

[8] = target: T3, AChE (type VI-S, from electric eel); experiment: AChE inhibition, adaptation of Ellman's method; type: biochemical; settings: means of three independent experiments ± SD, read-out: TcAChE Inhibition IC50
Description: The inhibition of AChE by the DNP-BIM hybrids herein studied was assayed by using a variation of Ellman´s test and the IC50 values obtained are included in Table 2. […]. An adaptation of the Ellman´s method, previously described, was used to measure the acetylcholinesterase inhibitory activity. The assay solution contained 374 µL of 4-(2-hydroxyethyl)-1-piperazineethanesulfonic acid (HEPES) buffer (50 mM, pH 8.0), 476 µL of 5,5’-dithiobis-(2-nitrobenzoic acid) (DTNB, 3 mM), a variable volume (10–50 µL) of the stock solution of each compound in methanol (1 mg/mL), 25 µL of AChE (type VI-S, from electric eel) stock solution, and the necessary amount of methanol to obtain 0.925 mL of sample mixture in a 1 mL cuvette. The samples were incubated for 15 min and then 75 µL of acetylthiocholine iodide (AChI) solution (16 mM) was added. The reaction was monitored for 5 min at 405 nm. Assays were run with a blank containing all the components except AChE, which was replaced by HEPES buffer. The rates of the reaction were calculated as well as the enzyme activity. A control reaction was carried out using methanol as a sample solution and it was considered as 100% activity.
The inhibition curves were obtained by plotting the percentage of enzymatic inhibition versus inhibitor concentration and a calibration curve was got from which the linear regression parameters were obtained.

SH-SY5Y cells = experiment: Neuroprotection from Aβ42-induced toxicity (MTT); type: cell-based, human; settings: compound 2.5 µM, 1 h pre-incubation plus 24 h co-incubation with Aβ42 1 µM
Description: Extracellular formation of senile plaques of aggregated Aβ along with the production of reactive oxygen species (ROS) are processes involved in the neurodegeneration that characterize AD [42]. […] Additionally, ROS production is also one of the hallmarks associated with AD pathogenesis.
SH-SY5Y human neuroblastoma cell line (ATCC-CRL-2266) was cultured in Dulbecco’s Modified Eagle Medium (DMEM) (Gibco-Invitrogen, Life Technologies Ltd., Liverpool, UK) supplemented with 10% of heat inactivated fetal bovine serum, 50 U/mL penicillin, and 50 μg/mL streptomycin, at 37 °C in 5% CO2. For the cell viability experiments, cells were plated with a density of 0.12 × 10^6 cells/mL. All the tested compounds (from 7 to 12) were dissolved in DMSO and aliquots were stored at −20 °C with a stock concentration of 25 mM. To choose the highest non-toxic concentration of the compounds, a concentration screening was performed (from 2.5 μM to 10 μM). For the experiments, all the compounds were added to the medium at a final concentration of 2.5 μM. […] Cells were pre-incubated for 1 h with the compounds and then incubated with Aβ1–42 or with Fe/Asc for an additional 24 h. […]
Cell viability was determined using the colorimetric 3-(4,5-dimethylthiazol-2-yl)-2,5-diphenyltetrazolium bromide (MTT) assay. […] The absorbance of the plate was measured at 570 nm. […]

Aβ1–42 [9] = target: T2, Aβ1–42; experiment: Inhibition of self-mediated Aβ1–42 aggregation (thioflavin T fluorescence); type: biochemical; settings: inhibitor 40 µM, Aβ1–42 40 μM, 24 h, 37 °C; read-out: Aβ1–42 Aggregation Inhibition, Self-Induced
Description: as §1, §2, §3, §4, §5

[10] = pH 7.4, CL/CM = 10, CM = 10^−6 M; cited from earlier work; remark: listed apart in the source

Row | SMILES | Aβ1–42 Aggregation Inhibition, Cu-Induced (Aβ1–42 with Cu(II) [1]; footnote e) | pZn (pM = −log[M]) [2] | Kd [3] [µM] | Aβ1–42 Aggregation Inhibition, Self-Induced (Aβ1–42 [4]; footnote e) | IC50 [5] [µM] | log K1, stepwise protonation constant (011) [6] | log K2, stepwise protonation constant (021) [6] | log K3, stepwise protonation constant (031) [6] | inhibition at 40 µM (Aβ1–42 with Cu(II) [7]) [%] | IC50 [8] [µM] | neuroprotective effect against Aβ42-induced cell toxicity (cell viability, MTT) (SH-SY5Y cells) | inhibition at 40 µM (Aβ1–42 [9]) [%] | Aβ1–42 Aggregation Inhibition, Cu-Induced (Aβ1–42 with Cu(II) [1]; footnote d, Cinhibitor = 80 µM) | pCu (pM = −log[M]) [10] | Aβ1–42 Aggregation Inhibition, Self-Induced (Aβ1–42 [4]; footnote d, Cinhibitor = 80 µM)
1 | O=C(NCC1CCN(Cc2ccccc2)CC1)c1ccc2nc(-c3ccccc3O)[nH]c2c1 [Compound 1] | 69.0 ^e % | 6.3 | 0.034 | 48.8 ^e % | 4.2 ± 0.8 | 8.671(1) | 7.39(1) | 3.21(1) | – | – | – | – | – | – | –
2 | COc1ccc(-c2nc3ccc(C(=O)NCCN4CCN(Cc5ccccc5)CC4)cc3[nH]2)c(O)c1 [Compound 9, N-(2-(4-Benzylpiperazin-1-yl)ethyl)-2-(4-metoxy-2-hydroxyphenyl)-1H-benzo[d]imidazole-5-carboxamide] | – | – | – | – | – | – | – | – | 66 | 1.87 ± 0.8 | remarkable reduction of Aβ-induced cell toxicity; also recorded: prevented Aβ-induced cell toxicity | 43.7 | – | – | –
3 | O=C(NCCN1CCN(Cc2ccccc2)CC1)c1ccc2nc(-c3ccccc3O)[nH]c2c1 [Compound 2] | – | 6.3 | 0.024 | – | 6.9 ± 0.6 | 9.04(3) | 6.76(6) | 3.37(7) | – | – | – | – | 37.7 ^d % | 10.7 | 25.3 ^d %
4 | O=C(NCCN1CCN(Cc2ccccc2F)CC1)c1ccc2nc(-c3ccccc3O)[nH]c2c1 [Compound 10, N-(2-(4-(2-Fluorobenzyl)piperazin-1-yl)ethyl)-2-(2-hydroxyphenyl)-1H-benzo[d]imidazole-6-carboxamide] | – | – | – | – | – | – | – | – | 75.8 | 4.32 ± 0.03 | remarkable reduction of Aβ-induced cell toxicity; also recorded: prevented Aβ-induced cell toxicity | 39.1 | – | – | –
